Measurements taken from patent US20120029047A1, “USE OF HDAC INHIBITORS FOR THE TREATMENT OF BONE DESTRUCTION” (priority 2007, published 2012).

Assays:
MM1S cells [1] = experiment: MM1S disseminated multiple myeloma model, tumor burden by bioluminescence; assay type: in vivo, SCID-beige mice
Description: Female SCID-beige mice were injected with MM1S cells (2×10^6) intravenously (iv) into the tail vein on Day 0. Treatment was initiated on Day 10 when the average tumor burden, as determined by bioluminescence, reached approximately 8.0×10^5-1.0×10^6 photons per second. All treatment groups consisted of 8 animals. […] Tumor burden and body weights were recorded once a week during the active dosing period. In vivo micro-computed tomography (microCT) images were acquired in live animals on day 32 and 33 (Study #1) or Day 34 and 35 (Study #2). In the second study, animals were individually monitored until achievement of clinical endpoint. Treatments were started on Day 10 post-iv tail implantation (2.0 million cells/animal). […] Vehicle control (D5W) was administered ip times per week, for 3 weeks. Initial group size: 8 animals. Final efficacy data and body weight change were calculated 72 hours post-last dose. Treatments were started on Day 10 post-iv tail implantation (2.0 million cells/animal). […] Vehicle control (D5W) was administered ip times per week, for 3 weeks. Initial group size: 8 animals. With respect to FIG. 2, treatments were started on Day 11 post-iv tail implantation (2.0 million cells/animal). NVP-LBH589-CU was administered ip, at 15 mg/kg (A), or 10 and 20 mg/kg (B), 5 times a week (qd×5/wk) for 4 weeks. Vehicle control (D5W) was administered ip 5 times a week (qd×5/wk), for 4 weeks. Bortezomib was administered iv, at 0.2 mg/kg, once per week (qwk) or 1 mg/kg, twice per week in Study #0879 for 4 weeks (biwk) (B). Initial group size: 8 animals. Final efficacy data are shown in the A panel for Study #0879 and B panel for Study #0942. Body weight changes were calculated on 24 hours post-last dose for each study (right panels).

MM1S cells [2] = experiment: Time to clinical endpoint in MM1S model (Study #0942); assay type: in vivo, SCID-beige mice; conditions: for Median Time to Clinical Endpoint: endpoint = clinical score of 3
Description: Female SCID-beige mice were injected with MM1S cells (2×10^6) intravenously (iv) into the tail vein on Day 0. Treatment was initiated on Day 10 when the average tumor burden, as determined by bioluminescence, reached approximately 8.0×10^5-1.0×10^6 photons per second. All treatment groups consisted of 8 animals. […] Tumor burden and body weights were recorded once a week during the active dosing period. In vivo micro-computed tomography (microCT) images were acquired in live animals on day 32 and 33 (Study #1) or Day 34 and 35 (Study #2). In the second study, animals were individually monitored until achievement of clinical endpoint. […] Each animal was monitored daily for progression of signs of disease progression, including mobility and general health. Animals were scored on a clinical scale from 0-4. […] These animals were removed from analysis due to treatment related deaths. […] The median time to endpoint for the vehicle treated animals was 37 days.

MM1S tumor bearing mice [3] = experiment: In vivo microCT analysis of tibial trabecular bone density; parameters: species or system SCID-beige mice; conditions: for increase in median trabecular bone density: after 4 weeks of treatment
Description: (§1) Animals were anesthetized with 2% isoflurane mixed with oxygen (2 L/min.) and then placed in a mouse holder (custom made, Peter Ingold, NIBR Basel) specifically designed to align both tibiae and mounted into an in vivo high resolution microCT scanner (VivaCT40, Scanco, Switzerland). To insure correct positioning of the mouse, a scout view of bilateral tibia bones and knee joints was taken and the region of interest (ROI, 2.23 mm in length) was positioned to start at the growth plate extending distally over the area of the trabecular bone (FIG. 3). The scanner was set to a nominal isotropic voxel size of 21 μm, referred to as medium/standard resolution. The X-ray tube was operated at 55 kVp and 145 mA with a focal spot size of 5 μm. Five hundred projection images were acquired per scan with an integration time of 180 ms. Tomographic images were reconstructed on a VMS cluster (HP Alpha, HP, Palo Alto, USA) in 1024×1024 pixel matrices using a conebeam back projection procedure resulting in 315 axial slices.
(§2) For determination of trabecular and cortical bone features, a 2.23 mm region of interest was placed to start at the growth plate extending distally. 106 axial slices were obtained using a μ-CT VivaCT40Scanner (SCANCO, Switzerland) with 55 kv, 145 mA, 180 ms integration time and 21 μm resolution. Trabecular bone density (BV/TV) was measured in a 0.735 mm region of a tibia (9 slices proximal and 25 slices distal from the tibial tuberosity) using SCANCO software (SCANCO, Switzerland) with a threshold of 275 is used to define calcified bone volume (BV). Cortical bone density (BV/TV) was measured in a 1.5 mm region of a tibia (15 slices proximal and 55 slices distal from the tibial tuberosity) using SCANCO software (SCANCO Switzerland) with a threshold of 275. Three-dimensional analysis was performed on the determined regions utilizing the SCANCO operational software. All treatment groups were scanned over the course of two days, with equal numbers of animals from each treatment group scanned each day.
FIG. 4 describes a […] region of interest was placed to start at the growth plate extending distally. 106 axial slices were obtained using a μ-CT VivaCT40Scanner (SCANCO, Switzerland) with 55 kv, […], 180 ms integration time and 21 μm resolution. Trabecular bone density, bone volume/total volume (BV/TV), was measured in a 0.735 mm region of a tibia (10 slices proximal and 25 slices distal from the tibial tuberosity) using SCANCO software (SCANCO, Switzerland) with a threshold of 275. Cortical bone density, bone volume/total volume (BV/TV), was measured in a 1.5 mm region of a tibia (15 slices proximal and 55 slices distal from the tibial tuberosity) using SCANCO software (SCANCO Switzerland) with a threshold of 275.

MM1S tumor bearing mice [4] = experiment: In vivo microCT analysis of tibial cortical bone density; parameters: species or system SCID-beige mice; conditions: Study #0879, 15 mg/kg, tibia
Description: as §1, with “The X-ray tube was operated at 55 kVp and 145 mA with a focal spot size of 5 μm. Five hundred projection images were acquired per scan with an integration time of 180 ms. Tomographic images were reconstructed on a VMS cluster (HP Alpha, HP, Palo Alto, USA) in 1024×1024 pixel matrices using a conebeam back projection procedure resulting in 315 axial slices.” left out
as §2, with “106 axial slices were obtained using a μ-CT VivaCT40Scanner (SCANCO, Switzerland) with 55 kv, 145 mA, 180 ms integration time and 21 μm resolution.” left out, “All treatment groups were scanned over the course of two days, with equal numbers of animals from each treatment group scanned each day.” left out

TRACP5B = experiment: Serum bio-marker TRACP5B ELISA (MouseTRAP Assay); assay type: in vivo, mouse
Description: A serum marker of bone metabolism, TRACP5B, was assessed for mouse serum changes. The MouseTRAP™ Assay kit is an ELISA assay (Cat#SB-TR103, IDS Fountain Hills, Ariz.). Briefly, polyclonal […] TRACP5B antibodies are incubated in 96 well plates coated with anti-rabbit IgG. This ELISA kit is specific for mouse TRACP5B only. This assay has a reported sensitivity of 0.1 U/L.
TRACP5B serum levels were evaluated as a measure of osteoclast activity. The level of a TRACP5B was analyzed in FIG. 7 and Table 12.

[5] = Study #0879, 15 mg/kg IP qdx5, 31 days after implantation
[6] = Study #0942, 10 mg/kg IP qdx5, 35 days after implantation
[7] = Study #0942, 20 mg/kg IP qdx5, 35 days after implantation

With `Cc1[nH]c2ccccc2c1CCNCc1ccc(/C=C/C(=O)NO)cc1` [LBH589, N-hydroxy-3-[4-[[[2-(2-methyl-1H-indol-3-yl)-ethyl]-amino]methyl]phenyl]-2E-2-propenamide] the “% Regression” value (MM1S cells [1]; [5]) was “None”, the “% T/C” value (MM1S cells [1]; [5]) was 22% and the “Delta Mean Tumor Burden (mean ± SEM)” value (MM1S cells [1]; [5]) was 292.4E+6 ± 92.6E+6 photons/sec. For the same compound, the “reduction in tumor burden” value (MM1S cells [1]; Study #0879, 15 mg/kg qdX5, Day 31) was ~78%, the “% Regression” value (MM1S cells [1]; [6]) was “None” and the “% T/C” value (MM1S cells [1]; [6]) was 31%. The “Delta Mean Tumor Burden (mean ± SEM)” value (MM1S cells [1]; [6]) was 348.5E+6 ± 49.6E+6 photons/sec, the “reduction in tumor burden” value (MM1S cells [1]; Study #0942, 10 mg/kg qdX5, Day 35) was ~79% and the “% Regression” value (MM1S cells [1]; [7]) was “None”. The “% T/C” value (MM1S cells [1]; [7]) was 9%, the “Delta Mean Tumor Burden (mean ± SEM)” value (MM1S cells [1]; [7]) was 107.7E+6 ± 42.6E+6 photons/sec and the “reduction in tumor burden” value (MM1S cells [1]; Study #0942, 20 mg/kg qdX5, Day 35) was ~91%. For the same compound, the “significance of reduction in tumor burden” value (MM1S cells [1]; both studies (#0879 and #0942)) was “statistically significant”, the “Median Time to Clinical Endpoint” value (MM1S cells [2]; Study #0942, 10 mg/kg) was 54 days and the “animals without symptoms of disease 80 days after implant” value (MM1S cells [2]; Study #0942, 20 mg/kg) was “One of the remaining six”. For the same compound, the “Median Time to Clinical Endpoint” value (MM1S cells [2]; Study #0942, 20 mg/kg) was 61 days, the “increase in mean trabecular bone density” value (MM1S tumor bearing mice [3]; Study #0879, 15 mg/kg, after 3 weeks of treatment) was 5.5 fold and the “Mean Trabecular Density (BV/TV)” value (MM1S tumor bearing mice [3]; Study #0879, 15 mg/kg, tibia) was 14.48 % BV/TV. The “increase in median trabecular bone density” value (MM1S tumor bearing mice [3]; Study #0942, 10 mg/kg) was 11.8 fold, the “Median Trabecular Density (BV/TV)” value (MM1S tumor bearing mice [3]; Study #0942, 10 mg/kg, tibia) was 8.23 % BV/TV and the “increase in median trabecular bone density” value (MM1S tumor bearing mice [3]; Study #0942, 20 mg/kg) was 19.1 fold. The “Median Trabecular Density (BV/TV)” value (MM1S tumor bearing mice [3]; Study #0942, 20 mg/kg, tibia) was 12.89 % BV/TV, the “Mean Cortical Density (BV/TV)” value (MM1S tumor bearing mice [4]) was 98.3% and the “Mean TRACP5B Serum Levels” value (TRACP5B; Study #0879, 15 mg/kg) was 7.1. For the same compound, the “decrease of serum levels of TRACP5B compared to vehicle” value (TRACP5B; Study #0879, LBH589 alone) was 41%.
